# Reference: patent publication US10882853B2, “Tyrosine kinase inhibitor and application thereof” (LaNova Medicines Limited, priority 2016, dated 2021)
# Like-named read-outs stand apart in the source and are kept apart here.
# What was measured:
# [1] = tested on: human colon cancer cells HCT116; assay: Inhibition on the proliferation of tumor cells (CCK8), HCT116; type: cell-based; conditions: for IC50: read-out: HCT116 IC50
# Procedure: (§1) (1) Culture cells: The tumor cells (such as human lung adenocarcinoma cells HCC78, human malignant glioma cells U87MG, human gastric cancer cells MKN-45, human umbilical vein endothelial cells HUVEC, human lung adenocarcinoma cells A549, etc.) were cultured in culture medium; culture conditions: 37° C., 5% CO2.
# (§2) (2) Inoculate cells: The cells at the exponential growth phase and in good state were taken, and an appropriate amount of pancreatin for cell dissociation was added thereto, the cells were collected for centrifugation, and the supernatant was discarded. The cells were resuspended with the culture solution containing serum, then counted, and the cell suspensions were taken and inoculated in a 96-hole plate at 3000/hole, 90 μL/hole. The culture plate was transferred into a constant temperature CO2 incubator, and cultured under the conditions of 37° C., 5% CO2 and saturated humidity for 24 h.
# (§3) (3) Add the test compounds: 10 μL/hole, culture for 72 h, 3 parallel holes were set for each group.
# [2] = tested on: human malignant glioma cells U87MG; assay: Inhibition on the proliferation of tumor cells (CCK8), U87MG; type: cell-based; conditions: read-out: U87MG IC50
# Procedure: as §1, §2, §3
# (§4) (4) Determine the results: After 72 h of action for the compounds, 10 μL/hole CCK8 was added, incubated in the incubator for an appropriate time, and the absorbance was measured at 450 nm.
# [3] = tested on: human ovarian cancer cells SK-OV-3; assay: Inhibition on the proliferation of tumor cells (CCK8), SK-OV-3; type: cell-based; conditions: for IC50: read-out: SK-OV-3 IC50
# Procedure: as §1, §2, §3
# [4] = tested on: human lung adenocarcinoma cells HCC78; assay: Inhibition on the proliferation of tumor cells (CCK8), HCC78; type: cell-based; conditions: read-out: HCC78 IC50
# Procedure: as §1, §2, §3
# [5] = tested on: human lung adenocarcinoma cells A549; assay: Inhibition on the proliferation of tumor cells (CCK8), A549; type: cell-based; conditions: for IC50: read-out: A549 IC50
# Procedure: as §1, §2, §3
# [6] = tested on: human gastric cancer cells MKN-45; assay: Inhibition on the proliferation of tumor cells (CCK8), MKN-45; type: cell-based; conditions: read-out: MKN-45 IC50
# Procedure: as §1, §2, §3, §4
# KDR = KDR (Homo sapiens (Human), UniProt P35968); assay: Inhibitory activity on KDR kinase (HTRF, XL-665/antibody); type: biochemical
# Chain of KDR (P35968 20-1356): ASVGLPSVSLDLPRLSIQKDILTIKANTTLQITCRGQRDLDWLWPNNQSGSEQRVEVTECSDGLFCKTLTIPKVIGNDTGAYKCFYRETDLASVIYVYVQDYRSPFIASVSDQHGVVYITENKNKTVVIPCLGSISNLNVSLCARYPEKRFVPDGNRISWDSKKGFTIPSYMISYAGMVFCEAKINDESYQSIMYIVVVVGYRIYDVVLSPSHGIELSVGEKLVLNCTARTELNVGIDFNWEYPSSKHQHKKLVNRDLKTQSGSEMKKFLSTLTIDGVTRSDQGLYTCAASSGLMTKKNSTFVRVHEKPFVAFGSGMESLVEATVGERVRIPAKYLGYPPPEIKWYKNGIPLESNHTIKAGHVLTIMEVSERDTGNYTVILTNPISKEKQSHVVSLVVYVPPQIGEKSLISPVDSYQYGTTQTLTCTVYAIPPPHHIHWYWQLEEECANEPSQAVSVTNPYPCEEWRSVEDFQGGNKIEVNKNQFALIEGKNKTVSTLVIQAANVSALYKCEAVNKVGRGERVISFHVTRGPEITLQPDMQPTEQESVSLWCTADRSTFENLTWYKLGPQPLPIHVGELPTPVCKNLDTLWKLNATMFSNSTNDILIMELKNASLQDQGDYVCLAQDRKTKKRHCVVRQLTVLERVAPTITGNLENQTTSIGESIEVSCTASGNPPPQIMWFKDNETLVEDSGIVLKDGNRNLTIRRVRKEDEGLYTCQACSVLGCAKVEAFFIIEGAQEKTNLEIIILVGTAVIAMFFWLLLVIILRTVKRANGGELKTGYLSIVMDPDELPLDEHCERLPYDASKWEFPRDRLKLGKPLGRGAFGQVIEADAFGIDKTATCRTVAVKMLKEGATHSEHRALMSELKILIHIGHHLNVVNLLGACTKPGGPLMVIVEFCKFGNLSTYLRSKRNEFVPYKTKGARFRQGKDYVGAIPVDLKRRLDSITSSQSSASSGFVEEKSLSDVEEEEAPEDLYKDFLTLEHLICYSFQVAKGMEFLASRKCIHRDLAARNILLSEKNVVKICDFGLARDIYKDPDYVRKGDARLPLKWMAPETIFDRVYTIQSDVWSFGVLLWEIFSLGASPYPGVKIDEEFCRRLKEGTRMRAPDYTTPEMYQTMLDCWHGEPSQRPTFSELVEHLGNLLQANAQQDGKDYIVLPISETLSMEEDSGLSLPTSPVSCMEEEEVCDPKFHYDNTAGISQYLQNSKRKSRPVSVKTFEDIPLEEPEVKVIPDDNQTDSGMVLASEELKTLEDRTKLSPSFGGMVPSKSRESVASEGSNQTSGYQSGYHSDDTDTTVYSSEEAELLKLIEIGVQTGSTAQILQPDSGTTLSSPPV
# Procedure: The compounds in the above Examples are used for detecting and screening the inhibitory activities of C-MET and KDR kinase.
# (2) Incubated at 25° C. for 5 min;
# (3) 2 μL of ATP/substrate/MgCl2/MnCl2/SEB/DTT mixed solution were added into the holes;
# (4) Centrifugated at 1000 rpm for 1 min, and incubated by vibration at 30° C. for 30 min;
# (6) Incubated at 25° C. for 1 h;
# (8) The data was analyzed according to the instructions of the kit, and the fitting calculation of IC50 was performed using GraphPad Prism5.
smiles,measurement,setting,value
"COc1cc2c(Oc3ccc(NC(=O)C4(C(=O)Nc5ccc(F)cc5)CC4)cc3F)ccnc2cc1OC1CC(N2CCOCC2)C1 (centres unmarked) [Compound 10, N-p-fluorophenyl-N-3-fluoro-4-[6-methoxyl-7-(3-morpholine-cyclobutyl)oxyquinoline-4-]oxyphenyl cyclopropyl-1,1-dimethyl formamide]",IC50,[1],2.6 µM
same,IC50,[2],1.59 µM
same,IC50,[3],7.85 µM
same,IC50,[4],0.107 µM
same,IC50,[5],4.4 µM
same,IC50,[6],3.21 µM
same,IC50,KDR,0.0642 µM
COc1cc2c(Oc3ccc(NC(=O)C4(C(=O)Nc5ccc(F)cc5)CC4)cc3F)ccnc2cc1OCC1CC(N2CCOCC2)C1 (centres unmarked) [Compound 5],IC50,"[1]; 72 h, CCK8",1.66 µM
same,IC50,"[2]; 72 h, CCK8",1.14 µM
same,IC50,"[3]; 72 h, CCK8",3.49 µM
same,IC50,"[4]; Table 4 (FIG. 4), 72 h, CCK8",0.0442 µM
same,IC50,"[5]; 72 h, CCK8",1.6 µM
same,IC50,"[6]; 72 h, CCK8",1.26 µM
same,IC50,KDR,0.0399 µM
"COc1cc2c(Oc3ccc(NC(=O)C4(C(=O)Nc5ccc(F)cc5)CC4)cc3F)ccnc2cc1OCCCN1CCOCC1 [Foretinib, reference compound]",IC50,"[1]; Homo sapiens, HCT-116, 72 h",2.06 µM
same,IC50,"[2]; Homo sapiens, U-87 MG, 72 h",1.65 µM
same,IC50,"[3]; Homo sapiens, SK-OV-3, 72 h",17.2 µM
same,IC50,"[5]; Homo sapiens, A549, 72 h",2.83 µM
same,IC50,"[6]; Homo sapiens, MKN-45, 72 h",1.87 µM
"COc1cc2c(Oc3ccc(NC(=O)C4(C(=O)Nc5ccc(F)c(F)c5)CC4)cc3F)ccnc2cc1OCCC[N+]1(C)CCOCC1 [For-Methyl, reference compound]",HCT116 IC50,[1],No inhibition
same,SK-OV-3 IC50,[3],No inhibition
same,IC50,"[4]; Homo sapiens, HCC78, 72 h",> 10 µM
same,A549 IC50,[5],No inhibition
